Test results published in patent publication US20080039442A1, “Compounds With Kv4 Ion Channel Activity” (Devgen NV, priority 2004, published 2008).
Like-named read-outs stand apart in the source and are kept apart here.

Molecular target: T1, human Kv4.3/KChIP2.2 potassium channel (Homo sapiens, UniProt Q9UK17)
T1 construct: expressed in transfected cells
T1 sequence (Q9UK17 1-655): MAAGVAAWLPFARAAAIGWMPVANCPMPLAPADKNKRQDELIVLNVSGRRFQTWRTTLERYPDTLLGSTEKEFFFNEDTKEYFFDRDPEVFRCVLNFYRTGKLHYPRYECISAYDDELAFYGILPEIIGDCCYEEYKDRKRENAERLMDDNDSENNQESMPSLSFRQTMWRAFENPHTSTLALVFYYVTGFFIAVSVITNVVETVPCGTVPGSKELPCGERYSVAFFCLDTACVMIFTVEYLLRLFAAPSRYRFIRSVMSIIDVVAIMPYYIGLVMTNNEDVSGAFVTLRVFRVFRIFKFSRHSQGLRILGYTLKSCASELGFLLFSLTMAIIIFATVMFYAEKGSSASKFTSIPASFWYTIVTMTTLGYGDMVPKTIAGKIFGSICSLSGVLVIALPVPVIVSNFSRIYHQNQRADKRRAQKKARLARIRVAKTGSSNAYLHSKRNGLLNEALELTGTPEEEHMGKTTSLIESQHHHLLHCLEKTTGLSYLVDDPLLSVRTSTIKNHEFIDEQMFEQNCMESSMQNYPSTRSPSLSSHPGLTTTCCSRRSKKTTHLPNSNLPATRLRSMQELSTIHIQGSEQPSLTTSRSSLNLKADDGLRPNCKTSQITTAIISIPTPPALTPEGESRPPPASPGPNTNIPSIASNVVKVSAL
T1 sequence (Q9NS61 1-270 partner): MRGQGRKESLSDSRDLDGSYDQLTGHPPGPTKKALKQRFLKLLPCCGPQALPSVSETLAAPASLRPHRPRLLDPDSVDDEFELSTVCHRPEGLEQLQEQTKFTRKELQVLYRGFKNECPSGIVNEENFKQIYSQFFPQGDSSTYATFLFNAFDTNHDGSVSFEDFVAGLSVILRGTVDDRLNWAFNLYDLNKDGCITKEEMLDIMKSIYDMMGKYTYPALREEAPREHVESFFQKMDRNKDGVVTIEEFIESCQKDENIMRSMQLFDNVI
Experiment: Whole cell patch clamp, CHO-K1 cells stably expressing Kv4.3/KChIP2.2
Type: cell-based
Conditions: for remaining activity at 1 µM: CHO-K1
Procedure, shortened: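 Whole-cell patch clamp at 20-25 °C, bath pH 7.4 with 4 mM KCl, pipette 130 mM KCl/10 mM EGTA/5 mM Na2ATP. Compound at […] (≤0.1% DMSO), n=2; pulses from −100 mV to +40 mV for 300 ms at 0.1 Hz, P/n (n=5) leak-corrected, cells with 1–50 nA currents only.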

[1] = Table 6, estimated from 2 μM, hill=1, ymax=100, read-out: IC50 (μM) Kv4.3
[2] = Table 12, read-out: Kv4.3 charge IC50
[3] = read-out: Kv4.3 charge in %: remaining current measured after application of the compound and relative to the blank
[4] = read-out: Kv4.3 peak in %: remaining peak height measured after application of the compound and relative to the blank

| Molecule | IC50 (Table 9, read-out: IC50 (μM) Kv4.3) | IC50 [2] | remaining activity at 1 µM [3] | remaining activity at 1 µM [4] | IC50 [1] |
| --- | --- | --- | --- | --- | --- |
| 5-chloro-benzofuran-2- carboxylic acid [3- (10,11-dihydro- dibenzo[a,d]cyclohepten- 5-ylidene)-propyl]- methyl-amide [Compound 5] | – | 16 µM | – | – | 16 µM |
| C[C@@H](NC(=O)c1cc2cc(Cl)ccc2o1)c1ccc([N+](=O)[O-])cc1 [Compound 1, 5-chloro-benzofuran-2-carboxylic acid [(R)-1-(4-nitro-phenyl)-ethyl]-amide] | – | 2.08 µM | – | – | – |

The next lines start with results.

| IC50 (Table 9, read-out: IC50 (μM) Kv4.3) | IC50 [2] | remaining activity at 1 µM [3] | remaining activity at 1 µM [4] | Molecule | IC50 [1] |
| --- | --- | --- | --- | --- | --- |
| 1.75 µM | 1.75 µM | – | – | 5-chloro-benzofuran-2- carboxylic acid 2,4- dimethoxy- benzylamide [Compound 2] | 1.75 µM |
| – | – | 37% | 77% | O=C(NCc1ccc(OC(F)(F)F)cc1)c1cc2cc(Cl)ccc2o1 [Compound 89, 5-chloro-benzofuran-2-carboxylic acid 4-trifluoromethoxy-benzylamide] | – |
| – | – | 30% | 87% | Cc1c(C(=O)NCc2ccc(F)c(C(F)(F)F)c2)sc2ccc(Cl)cc12 [Compound 107, 5-chloro-3-methyl-benzo[b]thiophene-2-carboxylic acid 4-fluoro-3-trifluoromethyl-benzylamide] | – |
